Test results from patent US9827198B2, “Pharmaceutical dosage forms comprising sodium-1-[6-(morpholin-4-yl)pyrimidin-4-yl]-4-(1H-1,2,3-triazol-1-yl)-1H-pyrazol-5-olate” (Bayer Pharma Aktiengesellschaft, priority 2013, dated 2017).
Structures can show the parent of a compound that is named as a salt.

How the values were obtained:
Type in all cases: physicochemical
[1] = Effect of light on active ingredient (I) or tablet cores; details: active ingredient (I) or the tablet cores
[2] = Solubility of active ingredient salts in water
[3] = Compatibility with polyethylene glycol used in the film coating; details: at high active ingredient concentrations
[4] = Stability with respect to uptake or release of water under varying atmospheric humidity; details: varying conditions of atmospheric humidity; compared with compound of the formula (II)

Effect of light [1] | solubility ([2]; 25° C.) [mg/mL] | Solubility in water at 25° C. [2] [mg/100 mL] | SMILES | Compatibility with polyethylene glycol used in the film coating [3] | Stability with respect to uptake or release of water [4]
brown discolouration | 26.2 |  | Oc1c(-n2ccnn2)cnn1-c1cc(N2CCOCC2)ncn1 [Sodium salt (active ingredient (I)), sodium 1-[6-(morpholin-4-yl)pyrimidin-4-yl]-4-(1H-1,2,3-triazol-1-yl)-1H-pyrazol-5-olate] | physical incompatibility with polyethylene glycol | significantly higher stability with respect to uptake or release of water
 |  | 6 | [Al+3].[O-]c1c(-n2ccnn2)cnn1-c1cc(N2CCOCC2)ncn1.[O-]c1c(-n2ccnn2)cnn1-c1cc(N2CCOCC2)ncn1.[O-]c1c(-n2ccnn2)cnn1-c1cc(N2CCOCC2)ncn1 [Aluminium salt] |  | 
